Where two headings read alike, the source gives them in different places.

From patent US12258389B2, “Methods and compositions for inhibition of EGF/EGFR pathway in combination with tyrosine kinase inhibitors” (In3Bio Ltd., priority 2015, dated 2025) come the findings set out here.

The subject of assay [1] is pSTAT-3. Description: Western blot, phosphorylated STAT3, PC9-GR4 (T790M positive) cells. The settings on record: AZD9291 0.2 μM, Ab1, Ctrl = 100. The format is cell-based, human. From the text: (§1) As described above, the PC9 cell line carries a 15 bp deletion in exon 19 of EGFR, making this cell line sensitive to TKI's. It represents a model for the EGFR Mutated segment of the NSCLC patient population receiving TKI treatment. As a part of this effort, PC9-derived cell lines resistant to TKIs were developed.
(§2) In 5-day experiments, PC9 cells were not submitted to serum starvation but cultured with human serum.
(A western blot detects proteins with antibodies after separation by electrophoresis.)

Assay [2] has as its system p-EGFR. Briefly: Western blot, phosphorylated EGFR normalised to total EGFR, PC9 cells. The format is cell-based, human. Here is the method: (§3) Experiment 1: In a typical standard experiment, five T-75 flasks of the cell line under study were cultured to approximately 70% confluence, washed twice with PBS and grown o/n in serum-free medium. The serum-starved cells were then washed again and treated as follows:
(§4) Treatment was for about 15 minutes.
(§5) Experiment 2: In a second experiment anti-EGF was tested only at 1 to 2 dilution. […] Treatment was prolonged to about 2 hours in this experiment.
(§6) Both EGF and anti-EGF antibodies, which used in this project were derived from an immunization study in monkeys that received 4 immunizations of the rEGF-rP64k conjugate CIMAvax-EGF vaccine formulated with Montanide adjuvant. The vaccine and resulting anti-EGF antibodies were provided by Bioven (Europe) Ltd, Cruikshank Building North, Aberdeen Biotechnology, Craibstone Aberdeen, U.K. Scotland. Antibodies for Western blotting were purchased from Santa Cruz Biotechnologies (Palo Alto, CA).
(§7) Experiment 3: In a third experiment anti-EGF was tested only at 1 to 2 dilution. […] Treatment was prolonged to about 2 hours in this experiment. […] Both EGF and anti-EGF were provided by Bioven. Antibodies for Western blotting were purchased from Santa Cruz Biotechnologies (Palo Alto, CA).
(§8) Subsequently, three kind of experiments were performed:
C. […]

In assay [3] the test system is p-Akt. Description: Western blot, phosphorylated Akt, PC9-GR4 (T790M positive) cells. The note with it: AZD9291 0.2 μM, Ab1, Ctrl = 100. The format is cell-based, human.
Excerpt: as §1, §2

The test system of assay [4] is p-Akt. Briefly: Western blot, phosphorylated Akt normalised to total Akt, PC9 cells. It is filed as cell-based, human. Here is the method:
as §3, §4, §5, §6, §7, §8
(§9) C. Non-Standard Conditions: In experiments “under non-standard conditions”, PC9 (4 flasks) cells were not submitted to serum starvation and activation with fetal bovine serum instead of human EGF was employed. They were washed with PBS (×2), drugs were added in medium containing 10% FBS and incubated for 2 hours.

The subject of a further assay is PC9-GR1 and GR4. Description: Sensitivity of T790M PC9-derived lines. It is filed as cell-based, human. An excerpt:
In the conduct of this study PC9-derived cell lines that are resistant to TKIs were utilized. […] They represent a model for the EGFR Mutated segment of the NSCLC patient population receiving first-line TKI treatment. […]. These two cell lines (PC9-GR1 and GR4) are sensitive to the new generation EGFR TKI developed by Astra Zeneca (AZD9291) that can also bind to the T790M EGFR mutated protein.
As described above, the PC9 cell line carries a 15 bp deletion in exon 19 of EGFR, making this cell line sensitive to TKI's. It represents a model for the EGFR Mutated segment of the NSCLC patient population receiving TKI treatment. As a part of this effort, PC9-derived cell lines resistant to TKIs were developed. […] […]. These two cell lines (PC9-GR1 and GR4) are sensitive to the new generation EGFR TKI developed by Astra Zeneca (AZD9291) that can also bind to the T790M EGFR mutated protein.

For assay [5], the system named is p-ERK1/2. Briefly: Western blot, phosphorylated ERK1/2 normalised to total ERK1/2, PC9 cells. The format is cell-based, human. As for the experimental part: as §3, §4, §5, §6, §7, §8, §9
The test system of assay [6] is p-EGFR. Briefly: Western blot, phosphorylated EGFR, PC9-GR4 (T790M positive) cells. The format is cell-based, human. The note with it: AZD9291 0.2 μM, Ab1, Ctrl = 100.
Excerpt: as §1, §2

In assay [7] the test system is p-ERK1/2. Description: Western blot, phosphorylated ERK1/2, PC9-GR4 (T790M positive) cells. It is filed as cell-based, human. The settings on record: AZD9291 0.2 μM, Ab1, Ctrl = 100.
Excerpt: as §1, §2

The next assay has as its system PC9 cells. Description: Sensitivity of parental PC9 cells to TKIs. The format is cell-based, human.
Excerpt: (§10) In the conduct of this study PC9-derived cell lines that are resistant to TKIs were utilized. […] They represent a model for the EGFR Mutated segment of the NSCLC patient population receiving first-line TKI treatment.
as §1

Assay [8] has as its system pSTAT-3. Description: Western blot, phosphorylated STAT3 normalised to total STAT3, PC9 cells. It is filed as cell-based, human. As for the experimental part: as §3, §4, §5, §6, §7, §8, §9
A further assay concerns PC9-ER and GR1 to GR5. Description: cells. It is filed as cell-based. The note with it: Homo sapiens, PC-9/ER; PC9-ER and GR1 to GR5 resistant lines.
Excerpt: as §10, §1

A further assay has as its system Notch3. Description: Western blot, Notch3, PC9 cells. The format is cell-based, human. The note with it: PC9, 24 h, gefitinib 0.5 μM, Ab1; Ctrl = 100. As for the experimental part:
as §2
(§11) A preliminary analysis was performed to test some of them: Notch3 cleaved (active form of Notch3), phosphor-YAP, Bmi1 and Hes1 (related to stem cells) and AXL (related to EMT transition). Also, PARP was investigated to determine if the antibodies induce apoptosis. Extracts of the PC9 cell line obtained in previous experiments were used. […] A not-so-significant down-regulation of Bmi1 was also observed.

The test system of the next assay is AXL. Briefly: Western blot, AXL, PC9 cells. The format is cell-based, human. The settings on record: PC9, 24 h, gefitinib 0.5 μM, Ab1; Ctrl = 100. As for the experimental part:
as §2, §11

Another assay deals with Bmi1. Briefly: Western blot, Bmi1 level, PC9 cells. The settings on record: PC9, 24 h, gefitinib 0.5 μM, Ab1; Ctrl = 100. It is filed as cell-based, human. As for the experimental part: as §2, §11
The test system of a further assay is pYAP. Briefly: Western blot, phospho-YAP, PC9 cells. The format is cell-based, human. The note with it: PC9, 24 h, gefitinib 0.5 μM, Ab1; Ctrl = 100. As for the experimental part:
as §2, §11

The test system of the next assay is HES1. Briefly: Western blot, Hes1 level, PC9 cells. It is filed as cell-based, human. The note with it: PC9, 24 h, gefitinib 0.5 μM, Ab1; Ctrl = 100. As for the experimental part:
as §2, §11

For a further assay, the system named is PARP cleaved. Briefly: Western blot, cleaved (truncated) PARP, PC9 cells. The note with it: PC9, 24 h, gefitinib 0.5 μM, Ab1 (FIG. 21). The format is cell-based, human. Here is the method: as §2, §11
Another assay has as its system Notch3 truncated. Description: Western blot, truncated (cleaved) Notch3, PC9 cells. The format is cell-based, human. The settings on record: PC9, 24 h, gefitinib 0.5 μM, Ab1; Ctrl = 100. As for the experimental part:
as §2, §11

The next assay relates to PARP. Description: Western blot, total PARP, PC9 cells. The format is cell-based, human. The settings on record: PC9, 24 h, gefitinib 0.5 μM, Ab1; Ctrl = 100. As for the experimental part:
as §2, §11

[9] abbreviates: PC9, 2 h, AZD9291 0.2 μM, Ab1, Ctrl = 100.
Where [10] appears, read: PC9, 0% FBS, EGF-induced, 2 h, erlotinib 1 μM, Ab 1/2 dilution, Control = 100.
[11] abbreviates: PC9, 2 h, erlotinib 1 μM, anti-EGF, nonstandard conditions and serum starvation (FIG. 13, 14).
[12] abbreviates: PC9, 24 h serum starvation and drug treatment, gefitinib 0.5 μM, Ab 1/2, Control = 100.
Where [13] appears, read: PC9, serum-starved, EGF, 15 min, gefitinib 40 nM, antibody 1/20 to 1/5 (FIG. 6).

As a reminder, the IC50 is the concentration that inhibits the measured activity by half. For `C=CC(=O)Nc1cc(Nc2nccc(-c3cn(C)c4ccccc34)n2)c(OC)cc1N(C)CCN(C)C` [AZD9291], the pSTAT3 is 60 with pSTAT-3 [1] (PC9-GR4, 2 h) and 146.6 in the assay on pSTAT-3 [8] (setting [9]). Moreover, the STAT3 with pSTAT-3 [1] (PC9-GR4, 24 h) amounted to 847.5. Also, the pEGFR with p-EGFR [2] (setting [9]) is 76.3; in the assay on p-EGFR [6] (PC9-GR4, 2 h) it was 2.5. The pAkt is reported as 42.7 in the assay with p-Akt [3] (PC9-GR4, 2 h) and 2.9 in the assay on p-Akt [4] (setting [9]). The compound also registered an Akt in the assay on p-Akt [3] (PC9-GR4, 24 h) of 26.8. Besides, in the assay on PC9-GR1 and GR4, the “sensitivity of cell lines” value is “sensitive”. Also, the “pErk ½” value was 3.7 in the assay with p-ERK1/2 [5] (setting [9]) and 53.6 in the assay with p-ERK1/2 [7] (PC9-GR4, 2 h). Also, the EGFR with p-EGFR [6] (PC9-GR4, 24 h) came to 138.6. Moreover, the “Erk ½” value with p-ERK1/2 [7] (PC9-GR4, 24 h) amounted to 20.5. The IC50 entry in the assay on PC9 cells is reported as “in the nM range”.
`C#Cc1cccc(Nc2ncnc3cc(OCCOC)c(OCCOC)cc23)c1` [Erlotinib, N-(3-ethynylphenyl)-6,7-bis(2-methoxyethoxy)-4-quinazolinamine] had an EGFR in the assay on p-EGFR [2] (setting [10]) of 14.3. The Akt in the assay on p-Akt [4] (setting [10]) was 0. The ERK in the assay on p-ERK1/2 [5] (setting [10]) is reported as 0. Moreover, the “effect on Erk activation” value in the assay with p-ERK1/2 [5] (setting [11]) is “inactivated”. The IC50 with PC9-ER and GR1 to GR5 fell in the range of 5 to 10 µM. In the assay with pSTAT-3 [8] (setting [10]), this compound yielded an STAT-3 of 130. Also, the “effect on STAT3 activation” value in the assay on pSTAT-3 [8] (setting [11]) was “activated”.
Take `COc1cc2ncnc(Nc3ccc(F)c(Cl)c3)c2cc1OCCCN1CCOCC1` [Gefitinib]: in the assay with Notch3, the Notch3 came out at 120.8. Also, the AXL with AXL stood at 135.4. This compound also came in with a Bmi1 with Bmi1 of 100.1. For the same compound, in the assay with pYAP, the “p YAP (Ser 397)” value is listed as 137.6. Further, the Hes1 in the assay on HES1 was found to be 86.5. Further, the pAkt in the assay on p-Akt [4] (setting [12]) is 72.6. Besides, the “effect on Akt phosphorylation” value in the assay with p-Akt [4] (setting [13]) was “inhibited”. Moreover, the PARP cleavage entry in the assay with PARP cleaved is “able to induce it”. The same compound showed a Notch3 truncated with Notch3 truncated of 98.9. In the assay on p-ERK1/2 [5], the “effect on Erk activation” value was “inactivated”, the “effect on Erk phosphorylation” value is given as “inhibited” and the pERK is 8.1. Further, the PARP total in the assay with PARP was 110. In the assay with pSTAT-3 [8] (setting [12]), this compound yielded a pSTAT3 of 569.2. In addition, the “effect on STAT-3 activation” value in the assay with pSTAT-3 [8] (PC9, nonstandard conditions (not serum-starved, 10% FBS, no EGF), 2 h, gefitinib 0.5 μM, anti-EGF 1/2 (FIG. 8)) was “activated”. Also, the “effect on STAT3 activation” value with pSTAT-3 [8] (PC9, serum starvation, EGF induction, 2 h, gefitinib 0.5 μM, anti-EGF 1/2 (FIG. 2, FIG. 9)) is recorded as “activated”. The “effect on STAT3 phosphorylation” value in the assay on pSTAT-3 [8] (setting [13]) is “activated”.
Turning to `COc1cc2c(Oc3ccc(NC(=O)C4(C(=O)Nc5ccc(F)cc5)CC4)cc3F)ccnc2cc1OCCCN1CCOCC1` [foretinib], the IC50 result in the assay with PC9 cells was “in the nM range”.
